Each structure is given as a SMILES string.

The assay concerns the target T1, SIRT1 (Homo sapiens, UniProt Q96EB6).
T1 sequence (Q96EB6 1-747): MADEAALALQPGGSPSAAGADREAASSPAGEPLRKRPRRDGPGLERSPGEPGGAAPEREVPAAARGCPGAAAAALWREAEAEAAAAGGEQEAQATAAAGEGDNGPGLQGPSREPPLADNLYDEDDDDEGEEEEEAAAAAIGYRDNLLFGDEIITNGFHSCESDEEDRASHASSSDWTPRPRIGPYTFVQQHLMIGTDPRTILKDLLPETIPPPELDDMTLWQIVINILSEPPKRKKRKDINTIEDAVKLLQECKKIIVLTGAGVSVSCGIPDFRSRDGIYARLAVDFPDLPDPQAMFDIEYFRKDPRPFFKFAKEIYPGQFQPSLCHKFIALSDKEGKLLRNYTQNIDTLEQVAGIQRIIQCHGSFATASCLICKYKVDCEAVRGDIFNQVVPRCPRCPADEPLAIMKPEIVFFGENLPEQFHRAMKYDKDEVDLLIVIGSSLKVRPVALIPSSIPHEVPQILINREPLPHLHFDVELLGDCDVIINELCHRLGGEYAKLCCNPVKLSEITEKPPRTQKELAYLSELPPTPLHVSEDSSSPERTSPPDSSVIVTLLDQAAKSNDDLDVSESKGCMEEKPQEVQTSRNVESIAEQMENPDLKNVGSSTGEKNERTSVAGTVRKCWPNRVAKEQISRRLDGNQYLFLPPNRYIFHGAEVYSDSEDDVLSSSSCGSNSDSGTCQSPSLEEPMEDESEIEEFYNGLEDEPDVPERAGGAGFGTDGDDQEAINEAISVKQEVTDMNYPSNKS
The assay is described as follows: Mass spectrometry based SIRT1 deacetylation assay (activation). Conditions: 10 nM SIRT1, 0.5 μM peptide substrate, 120 μM βNAD+, 25 min at 25° C. It counts as biochemical. In short, it runs like this: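 Activation reported as EC1.5, the compound concentration producing 150% of DMSO-control deacetylation, plus maximum fold activation. Readout is mass-spectrometric ratio of deacetylated to acetylated p53-based peptide (0.5 μM) after 25 min, 25 °C, with 120 μM βNAD+ and 10 nM His-tagged human SIRT1, pH 8.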
For `O=C(Nc1ccccn1)c1cccc2ccc(-c3cccc(C(F)(F)F)c3)nc12` [Compound 30], the “% Fold Act. (percent maximum fold activation)” value is “A (Fold activation >200%)” and the “EC1.5 (concentration of test compound that results in 150% activation of SIRT1)” value is “A (EC1.5<1.0 uM)”.

For `Cc1cc(-c2ccc3cccc(C(=O)Nc4nccs4)c3n2)ccn1` [Compound 223], the “EC1.5 (concentration of test compound that results in 150% activation of SIRT1)” value is listed as “C (EC1.5>25 uM)”. For the compound `O=C(Nc1ncc(CN2CCOCC2)s1)c1cccc2ccc(-c3cccc(OC(F)(F)F)c3)nc12` [Compound 189], the “% Fold Act. (percent maximum fold activation)” value is recorded as “A (Fold activation >200%)” and the “EC1.5 (concentration of test compound that results in 150% activation of SIRT1)” value is on record as “A (EC1.5<1.0 uM)”. As to `Cc1cc(C)nc(NC(=O)c2cccc3ccc(-c4cccnc4)nc23)c1` [Compound 248], the “% Fold Act. (percent maximum fold activation)” value is “A (Fold activation >200%)” and the “EC1.5 (concentration of test compound that results in 150% activation of SIRT1)” value is reported as “A (EC1.5<1.0 uM)”. On the same counts, the results for `O=C(Nc1cccnc1)c1cccc2ncc(-c3ccccc3)nc12` [Compound 117] are “B (Fold Activation <200%)” and “B (EC1.5 1-25 uM)”.

In the case of `O=C(Nc1ccncn1)c1cccc2ncc(-c3cccc(OC(F)(F)F)c3)nc12` [Compound 128], the “EC1.5 (concentration of test compound that results in 150% activation of SIRT1)” value is reported as “C (EC1.5>25 uM)”.

On to `O=C(Nc1nc(CN2CCOCC2)cs1)c1cccc2ccc(-c3cccnc3)nc12` [Compound 190], for which the “% Fold Act. (percent maximum fold activation)” value is listed as “A (Fold activation >200%)” and the “EC1.5 (concentration of test compound that results in 150% activation of SIRT1)” value is given as “A (EC1.5<1.0 uM)”. As to `FC(F)(F)c1cccc(-c2ccc3cccc(NCC4CCCC4)c3n2)c1` [Compound 138], the “EC1.5 (concentration of test compound that results in 150% activation of SIRT1)” value is reported as “C (EC1.5>25 uM)”. As for `O=C(NC1CCOCC1)c1cccc2ccc(-c3cccc(C(F)(F)F)c3)nc12` [Compound 39], the “% Fold Act. (percent maximum fold activation)” value is “B (Fold Activation <200%)” and the “EC1.5 (concentration of test compound that results in 150% activation of SIRT1)” value was “B (EC1.5 1-25 uM)”. On the same counts, the results for `O=C(Nc1ccc(OCC(O)CO)cc1)c1cccc2ccc(-c3cccc(C(F)(F)F)c3)nc12` (centres unmarked) [Compound 149] are “A (Fold activation >200%)” and “A (EC1.5<1.0 uM)”. On the same counts, the results for `O=C(Nc1nccs1)c1cccc2ccc(-c3ccnc(C(F)F)c3)nc12` [Compound 304] are “A (Fold activation >200%)” and “A (EC1.5<1.0 uM)”.

Regarding `O=C(Nc1cccnc1)c1cccc2ccc(-c3cccc(N4CCOCC4)c3)nc12` [Compound 110], the “% Fold Act. (percent maximum fold activation)” value is given as “A (Fold activation >200%)” and the “EC1.5 (concentration of test compound that results in 150% activation of SIRT1)” value is reported as “A (EC1.5<1.0 uM)”. Consider `O=C(Nc1cccc2ccc(-c3cccc(N4CCCC4)c3)nc12)c1cscn1` [Compound 201], for which the “EC1.5 (concentration of test compound that results in 150% activation of SIRT1)” value is “C (EC1.5>25 uM)”. For the compound `O=C(Nc1cccnc1)c1cccc2ncc(-c3cccc(C(F)(F)F)c3)nc12` [Compound 124], the “% Fold Act. (percent maximum fold activation)” value is recorded as “B (Fold Activation <200%)” and the “EC1.5 (concentration of test compound that results in 150% activation of SIRT1)” value is “A (EC1.5<1.0 uM)”. On the same counts, the results for `O=C(Nc1ccnc(N2CCCC2)c1)c1cccc2ccc(-c3cccc(C(F)(F)F)c3)nc12` [Compound 322] are “A (Fold activation >200%)” and “A (EC1.5<1.0 uM)”. Take `O=C(NC1CCCC1)c1cccc2ccc(-c3cccc(O[C@@H]4CCNC4)c3)nc12` [Compound 102]: the “% Fold Act. (percent maximum fold activation)” value is “A (Fold activation >200%)” and the “EC1.5 (concentration of test compound that results in 150% activation of SIRT1)” value is listed as “B (EC1.5 1-25 uM)”. Regarding `c1cncc(CNc2cccc3ccc(-c4ccc5c(c4)OCO5)nc23)c1` [Compound 164], the “EC1.5 (concentration of test compound that results in 150% activation of SIRT1)” value is reported as “C (EC1.5>25 uM)”. The same measure, in the same setting: the entry for `Cc1cc(-c2ccc3cccc(C(=O)Nc4ccncn4)c3n2)no1` [Compound 70] is “C (EC1.5>25 uM)”; for `O=C(Nc1ccccn1)c1cccc2ccc(-c3ccc(C(F)(F)F)cc3)nc12` [Compound 97] it is “C (EC1.5>25 uM)”; for `O=C(Nc1cccc2ccc(-c3cccc(C(F)(F)F)c3)nc12)c1csc(-c2ccccc2)n1` [Compound 206] it is “C (EC1.5>25 uM)”. With `O=C(Nc1nc(CN2CCCC2)cs1)c1cccc2ccc(-c3cccc(OC(F)(F)F)c3)nc12` [Compound 148], the “% Fold Act. (percent maximum fold activation)” value is given as “A (Fold activation >200%)” and the “EC1.5 (concentration of test compound that results in 150% activation of SIRT1)” value is on record as “A (EC1.5<1.0 uM)”. On to `O=C(Nc1nccs1)c1cccc2ncc(-c3cccc(OC(F)(F)F)c3)nc12` [Compound 125], for which the “EC1.5 (concentration of test compound that results in 150% activation of SIRT1)” value was “C (EC1.5>25 uM)”. For `Cn1ccc(NC(=O)c2cccc3ccc(-c4cccc(C(F)(F)F)c4)nc23)n1` [Compound 272], the “% Fold Act. (percent maximum fold activation)” value is “A (Fold activation >200%)” and the “EC1.5 (concentration of test compound that results in 150% activation of SIRT1)” value is “A (EC1.5<1.0 uM)”.

In the case of `O=C(Nc1ncc(CN2CCCC2)s1)c1cccc2ccc(-c3cccnc3)nc12` [Compound 218], the “% Fold Act. (percent maximum fold activation)” value was “A (Fold activation >200%)” and the “EC1.5 (concentration of test compound that results in 150% activation of SIRT1)” value is “B (EC1.5 1-25 uM)”. As to `Cc1csc(NC(=O)c2cccc3cnc(-c4cccnc4)nc23)n1` [Compound 295], the “EC1.5 (concentration of test compound that results in 150% activation of SIRT1)” value is “C (EC1.5>25 uM)”. In the case of `O=C(Nc1cccc2ccc(-c3ccccc3OC(F)(F)F)nc12)c1cscn1` [Compound 92], the “% Fold Act. (percent maximum fold activation)” value is reported as “A (Fold activation >200%)” and the “EC1.5 (concentration of test compound that results in 150% activation of SIRT1)” value is recorded as “A (EC1.5<1.0 uM)”. On the same counts, the results for `O=C(Nc1ccccn1)c1cccc2ncc(-c3cccc(C(F)(F)F)c3)nc12` [Compound 129] are “B (Fold Activation <200%)” and “A (EC1.5<1.0 uM)”.

Take `O=C(Nc1ncnc2ccc(-c3cccc(C(F)(F)F)c3)nc12)c1ccc(CN2CCCC2)cc1` [Compound 312]: the “% Fold Act. (percent maximum fold activation)” value is given as “A (Fold activation >200%)” and the “EC1.5 (concentration of test compound that results in 150% activation of SIRT1)” value was “B (EC1.5 1-25 uM)”. On to `O=C(Nc1cccc2ccc(-c3cccc(CN4CCOCC4)c3)nc12)c1cscn1` [Compound 120], for which the “% Fold Act. (percent maximum fold activation)” value is given as “A (Fold activation >200%)” and the “EC1.5 (concentration of test compound that results in 150% activation of SIRT1)” value is “A (EC1.5<1.0 uM)”. On the same counts, the results for `O=C(Nc1cccc2ccc(-c3cccnc3)nc12)c1cccc(OCCN2CCOCC2)c1` [Compound 317] are “A (Fold activation >200%)” and “B (EC1.5 1-25 uM)”. On the same counts, the results for `O=C(Nc1ccc(Cl)cn1)c1cccc2ccc(-c3cccc(C(F)(F)F)c3)nc12` [Compound 56] are “B (Fold Activation <200%)” and “A (EC1.5<1.0 uM)”. Regarding `O=C(Nc1cccc2ccc(-c3cc(F)cc(C(F)(F)F)c3)nc12)c1cnccn1` [Compound 156], the “EC1.5 (concentration of test compound that results in 150% activation of SIRT1)” value is listed as “C (EC1.5>25 uM)”.

The record behind these values is patent publication US8685970B2, “Quinolines and related analogs as sirtuin modulators” (GlaxoSmithKline, LLC, priority 2008, dated 2014).
